Laboratory results: patent US11174260B2, “Compounds and methods for the treatment of parasitic diseases” (THE BROAD INSTITUTE, INC., priority 2017, dated 2021)
Like-named read-outs stand apart in the source and are kept apart here.

Key:
[1] = test system: P. falciparum Dd2; assay: In vitro P. falciparum blood-stage culture and assay; assay type: cell-based; details: 72 h incubation, SYBR Green I readout, read-out: Pf Dd2
Method: Strains of P. falciparum (Dd2, 3D7, D6, K1, NF54, V1/3, HB3, 7G8, FCB and TM90C2B) were obtained from the Malaria Research and Reference Reagent Resource Center (MR4). P. falciparum isolates were maintained with O-positive human blood in an atmosphere of 93% N2, 4% CO2, 3% O2 at 37° C. in complete culturing medium (10.4 g/L RPMI 1640, 5.94 g/L HEPES, 5 g/L albumax II, 50 mg/L hypoxanthine, 2.1 g/L sodium bicarbonate, 10% human serum and 43 mg/L gentamicin). Parasites were cultured in medium until parasitaemia reached 3-8%. Parasitaemia was determined by checking at least 500 red blood cells from a Giemsa-stained blood smear. For the compound screening, a parasite dilution at 2.0% parasitaemia and 2.0% haematocrit was created with medium. 25 μl of medium was dispensed into 384-well black, clear-bottom plates and 100 nl of each compound in DMSO was transferred into assay plates along with the control compound (mefloquine). Next, 25 μl of the parasite suspension in medium was dispensed into the assay plates giving a final parasitaemia of 1% and a final haematocrit of 1%. The assay plates were incubated for 72 h at 37° C. 10 μl of detection reagent consisting of 10×SYBR Green I (Invitrogen; supplied in 10,000× concentration) in lysis buffer (20 mM Tris-HCl, 5 mM EDTA, 0.16% (w/v) Saponin, 1.6% (v/v) Triton X-100) was dispensed into the assay plates. For optimal staining, the assay plates were left at room temperature for 24 h in the dark. The assay plates were read with 505 dichroic mirrors with 485 nm excitation and 530 nm emission settings in an Envision (PerkinElmer).

[2] = test system: C. parvum; assay: C. parvum in vitro EC50 assay; assay type: cell-based; details: Cryptosporidium parvum; C. parvum oocysts in HCT-8 cells
Method: Human ileocecal adenocarcinoma (HCT-8) cells were obtained from ATCC and maintained in T-75 tissue culture flasks with RPMI 1640 medium with HEPES, sodium pyruvate (1 mM), and L-glutamine (ATCC) supplemented with 10% horse serum (ATCC) and 120 U/ml penicillin and 120 μg/ml streptomycin. Cells were plated into 384-well, tissue culture-treated, black-walled, clearbottom microwell plates (BD Falcon) at a density of 8,850 cells/well and allowed to grow to confluence. They were then inoculated with 5.5×10^3 primed C. parvum oocysts (Bunchgrass Farms, Deary, Id.) suspended in inoculation medium (RPMI 1640 without horse serum). Oocysts were primed for excystation by following a previously described protocol (J. Eukaryot. Microbiol. 46:56S-57S). Briefly, oocysts were treated for 10 min with 10 mM HCl at 37° C., centrifuged, and treated with a 2 mM solution of sodium taurocholate (Sigma-Aldrich) in phosphate-buffered saline (PBS) with Ca^2+ and Mg^2+. The suspension was incubated for 10 min at 16° C. and then diluted in inoculation medium and added to each well. Infected cells were incubated at 37° C. for 3 h, at which point an equal volume of growth medium containing 20% horse serum (total serum concentration of 10%). Compounds were diluted and assayed at fixed doses of 0.12, 0.37, 1.1, 3.3, and 10 μM (each concentration, n=14) for the generation of EC50 curves. In the case of final EC50 curves, three wells were left uninfected but treated with each of the corresponding concentrations of the compound to assess for background staining. All curves were generated using the log[inhibitor] versus response_variable slope equation in GraphPad Prism (equation 3), with the bottom constraint set equal to 0.

[3] = Plasmodium falciparum, DD2, 72 h

Compound	EC50 [1, 3]	EC50 [2]	EC50 [1]
COc1ccc(NC(=O)N2C/C=C\CN3[C@H](CN(C)C)[C@H](c4ccc(C#Cc5ccccc5)cc4)[C@@H]3C2)cc1 [Example E4, (3Z,8R,9S,10S)-10-[(dimethylamino)methyl]-N-(4-methoxyphenyl)-9-[4-(2-phenylethynyl)phenyl]-1,6-diazabicyclo[6.2.0]dec-3-ene-6-carboxamide]	< 50 nM	68 nM	
COc1ccc(NC(=O)N2C[C@H](O)[C@H](O)CN3[C@H](CN(C)C)[C@H](c4ccc(C#Cc5ccccc5)cc4)[C@@H]3C2)cc1 [Example E6, (3R,4S,8R,9S,10S)-10-((dimethylamino)methyl)-3,4-dihydroxy-N-(4-methoxyphenyl)-9-(4-(phenylethynyl)phenyl)-1,6-diazabicyclo[6.2.0]decane-6-carboxamide]	< 50 nM	95 nM	
COc1ccc(NC(=O)N2C[C@@H](O)[C@@H](O)CN3C[C@H](c4ccc(C#Cc5ccccc5)cc4)[C@@H]3C2)cc1 [Example E36, (3S,4R,8R,9S)-3,4-dihydroxy-N-(4-methoxyphenyl)-9-[4-(2-phenylethynyl)phenyl]-1,6-diazabicyclo[6.2.0]decane-6-carboxamide]	50 to 250 nM	6 nM	
COc1ccc(NC(=O)N2C[C@H](O)[C@H](O)CN3C[C@H](c4ccc(C#Cc5ccccc5)cc4)[C@@H]3C2)cc1 [Example E37, (3R,4S,8R,9S)-3,4-dihydroxy-N-(4-methoxyphenyl)-9-[4-(2-phenylethynyl)phenyl]-1,6-diazabicyclo[6.2.0]decane-6-carboxamide]	50 to 250 nM		
COc1ccc(NC(=O)N2C[C@@H](O)[C@@H](O)CN3[C@H](CN(C)C(C)C)[C@H](c4ccc(C#Cc5ccccc5)cc4)[C@@H]3C2)cc1 [Example E10, (3S,4R,8R,9S,10S)-3,4-dihydroxy-10-[[isopropyl(methyl)amino]methyl]-N-(4-methoxyphenyl)-9-[4-(2-phenylethynyl)phenyl]-1,6-diazabicyclo[6.2.0]decane-6-carboxamide]	< 50 nM		
CN(C)C[C@@H]1[C@H](c2ccc(C#Cc3ccccc3)cc2)[C@@H]2CN(C(=O)Nc3ccc(OC4CC4)cc3)C[C@H](O)[C@H](O)CN12 [Example E38, (3R,4S,8R,9S,10S)-N-(4-cyclopropoxyphenyl)-10-((dimethylamino)methyl)-3,4-dihydroxy-9-(4-(phenylethynyl)phenyl)-1,6-diazabicyclo[6.2.0]decane-6-carboxamide]	< 50 nM		
COc1ccc(NC(=O)N2C[C@@H](O)[C@@H](O)CN3[C@H](CN(C)C)[C@H](c4ccc(C#Cc5ccccc5F)cc4)[C@@H]3C2)cc1 [Example E7, (3S,4R,8R,9S,10S)-10-[(dimethylamino)methyl]-9-[4-[2-(2-fluorophenyl)ethynyl]phenyl]-3,4-dihydroxy-N-(4-methoxyphenyl)-1,6-diazabicyclo[6.2.0]decane-6-carboxamide]	< 50 nM		

Results, then the molecule that gave them:

EC50 [1, 3]	EC50 [2]	EC50 [1]	Compound
< 50 nM	33 nM		COc1ccc(NC(=O)N2CC[C@H](O)CN3[C@H](CN(C)C)[C@H](c4ccc(C#Cc5ccccc5)cc4)[C@@H]3C2)cc1 [Example E15, (3S,8R,9S,10S)-10-[(dimethylamino)methyl]-3-hydroxy-N-(4-methoxyphenyl)-9-[4-(2-phenylethynyl)phenyl]-1,6-diazabicyclo[6.2.0]decane-6-carboxamide]
< 50 nM	134 nM		COc1ccc(NC(=O)N2CCC(CN(C)C)CN3[C@H](CO)[C@H](c4ccc(C#Cc5ccccc5)cc4)[C@@H]3C2)cc1 (stereo partly drawn) [Example E27, (8R,9R,10S)-3-[(dimethylamino)methyl]-10-(hydroxymethyl)-N-(4-methoxyphenyl)-9-[4-(2-phenylethynyl)phenyl]-1,6-diazabicyclo[6.2.0]decane-6-carboxamide]
< 50 nM	98 nM		COc1ccc(NC(=O)N2CCC(CO)CN3[C@H](CN(C)C)[C@H](c4ccc(C#Cc5ccccc5)cc4)[C@@H]3C2)cc1 (stereo partly drawn) [Example E26, (8R,9S,10S)-10-[(dimethylamino)methyl]-3-(hydroxymethyl)-N-(4-methoxyphenyl)-9-[4-(2-phenylethynyl)phenyl]-1,6-diazabicyclo[6.2.0]decane-6-carboxamide]
		< 50 nM	COc1ccc(NC(=O)N2CCC(O)CN3[C@H](CN(C)C)[C@H](c4ccc(C#Cc5ccccc5)cc4)[C@@H]3C2)cc1 (single isomer, unassigned) [Example E17]
